Where “and” joins values, the source holds several entries; their conditions need not be identical. Equal entries are not always repeated. Entries after “also recorded” stand apart in the source; their conditions may differ. Structures can show the parent of a compound that is named as a salt. Where two headings read alike, the source gives them in different places.
How the values were obtained:
[1] = system: 6-OHDA treated zebrafish larvae; experiment: Rescue of Tyrosine hydroxylase (TH)-positive dopaminergic neurons in 6-OHDA zebrafish larvae; assay type: in vivo
Experimental: The 7 candidates also were tested in terms of rescue of dopaminergic neurons positive for Tyrosine hydroxylase (Th) in the substancia nigra pars compacta of the test animals. […] Results were normalized for healthy control values (healthy control=100% of neurons). As a control, zebrafish were treated with only the vehicle, ascorbic acid. ‘6-OHDA_ represents results in zebrafish receiving no treatment.
FIGS. 6E-6G show representative Z-projections of confocal stacks of whole-mount anti-TH immunohistochemistry in 6 days post-fertilization (dpf) of zebrafish larvae (age of the fish) control (FIG. 6E), 6-OHDA (FIG. 6F), and tapentadol treated-larvae (FIG. 6G).

6-OHDA mouse model [2] = experiment: Cylinder test, 6-OHDA mice (Example 5); assay type: in vivo
6-OHDA mouse model [3] = assay type: in vivo; conditions: for Gait test: maximum velocity, mean velocity, percentage of time resting or moving fast: tapentadol hydrochloride 8 or 15 mg/kg/day, hydrochloride
Experimental: That is, tapentadol hydrochloride C1 concentration dosage was increased to 8 mg/kg/day and tapentadol hydrochloride C3 concentration dosage was increased to 15 mg/kg/day. The gait test plan is illustrated in FIGS. 24A-24B.
To better observe the movement pattern of mice ̆s limbs, a new device was engineered similar to that used in a beam test, but with a closed corridor and a door. The apparatus was transparent with two home-cages at the extremities, one at the entrance that is transparent and another on the opposite end that is black. Each test was repeated 5 times and the 3 more consistent trials were selected for paw placement analysis. Data was recorded by 3 different cameras: on the bottom, top, and side of the corridor. Each camera allowed measurement of a different gait parameter. Specifically, the bottom camera allowed measurement, through the base of the support, of the hind paw distance and hind paw angle. The top camera allowed measurement of different parameters at distinct zones^—in the green area (most of the length of the apparatus), maximum and mean velocity, percentage of time resting/moving slow/moving fast, and time to the door were measured; the dark blue area provided a lag zone; and in the yellow area (area in front of the door), the permanence time before the door, mean velocity before the door, and latency to cross the door were measured. The side camera was used to analyze mice posture.

[4] = cited from earlier work
[5] = chronic dosing; cited from earlier work
healthy wild type mice [6] = experiment: Toxicity assay, open field test in healthy wild type mice (Example 6); assay type: in vivo, mouse; conditions: 1 h after i.p.; tapentadol C1 8.3 mg/kg in combination with L-Dopa 18 mg/kg
Source text: Necropsy was done after cervical dislocation. […] Saline was given to the control group.

[7] = system: cytochrome P450 (CY P) isoenzymes; conditions: cited from earlier work
healthy wild type mice [8] = experiment: Toxicity assay, welfare and necropsy (Example 6); conditions: 24 h
Experimental: Their behavior was evaluated with open field tests for 1 h after i.p. injection. After 24 h, animals were sacrificed and necropsy was performed
9 week old NMRI female mice were used for this assay. Animals were tested for their welfare after two intraperitoneal injections of the test agents using the open field test. Necropsy was done after cervical dislocation. […] Benserazide at 12 mg/kg was administered 30 minutes prior to administration of these compounds, in all groups. Saline was given to the control group.
After benserazide administration, animals were monitored in the open field for 30 minutes for habituation. […] 24 hours after administration of the compounds, the animals were sacrificed and necropsy performed.
For administration of the various agents to the animals, two 700 ? L injections were administered 30 minutes apart.

[9] = cited from earlier work; remark: listed apart in the source
mouse = conditions: cited from earlier work
6-OHDA mouse model [10] = experiment: Abnormal involuntary movements, 6-OHDA mice (Example 5); assay type: in vivo; conditions: 28 days post injection; 30 and 90 minutes after treatment
Experimental: This condition results in a range of involuntary movements that can be evaluated by video tracking analyses. […] Evaluations were performed during two independent trials, 30 and 90 minutes after treatment administration. […] Nonetheless, forelimb and orofacial involuntary movements are extremely hard to detect, and reading errors occur, considering the size of the animals. Total abnormal involuntary movements are the sum of all 4 different involuntary movements evaluated and is the parameter often reported in the literature.
As FIGS. 17A-17F show, abnormal involuntary movements were evaluated using the cylinder test 28 days post injection. […] Values mean ě SEM (n=5-8).

6-OHDA mouse model [11] = experiment: Rotarod test, unilateral striatal 6-OHDA mice (Example 5); assay type: in vivo
6-OHDA mouse model [12] = experiment: Abnormal involuntary movements (AIMs), 6-OHDA mice, ON/OFF L-Dopa study (Example 7)
Experimental: The unilateral striatal 6-OHDA mice model was used in this study. Specifically, 12 week old CD-1 male mice received an injection of 6-OHDA neurotoxin at the following coordinates: AP +0.9 mm, ML +2.0 mm, DV −3.2 mm, as in the Example outlined above. Animals were injected with 10 ? g of 6-OHDA or ascorbic acid (vehicle control) to induce the disease. Disease was induced for 7 days and treatment then was initiated at this time point.
The following parameters were evaluated: hyperkinetic and/or dystonic movements of the contralateral forelimb on the sagittal or frontal plane (forelimb involuntary movements; FIG. 29A), twisted posture of the neck and upper body towards the side contralateral to the lesion (upper body involuntary movements; FIG. 29B), twitching of orofacial muscles, empty jaw movements and contralateral tongue protrusion (orofacial involuntary movements; FIG. 29C), circular locomotion with contralateral side bias (circular involuntary movements; FIG. 29D), total involuntary movements (FIG. 29E), and total involuntary movement along the different timepoints (FIG. 29F). […] Total abnormal involuntary movements (FIGS. […]) were the sum of all 4 different involuntary movements evaluated.
The same parameters were analyzed as for 20 days post injection (dpi).

CC[C@@H](c1cccc(O)c1)[C@@H](C)CN(C)C [tapentadol, tapentadol hydrochloride]
Neurorescue ([1]; TH+ neurons at optimal dose, p): Confirmed p < 0.055
Neuroprotective effect / recovery of TH+ neurons ([1]; at the optimal concentration of each molecule, hydrochloride): confirmed; also recorded: recovery was observed
Cylinder test: recovery over the parameters analyzed (6-OHDA mouse model [2]; concentration 1 (2.8 mg/kg/day), hydrochloride, 2.8 mg/kg/day): showed a recovery; also recorded: strongest recovery
Cylinder test: recovery over the parameters analyzed (6-OHDA mouse model [2]; concentration 2 (0.9 mg/kg/day)): did not show significant recovery
Gait test: all parameters measured (6-OHDA mouse model [3]; 21 dpi, L-Dopa ON period): no significant improvement
Gait test: permanence time before the door, latency to cross the door, mean velocity before the door (6-OHDA mouse model [3]; 29 dpi, L-Dopa OFF period): behavioral recovery
Gait test: maximum velocity, mean velocity, percentage of time resting or moving fast (6-OHDA mouse model [3]; 29 dpi, L-Dopa OFF period, listed as Tapentadol hydrochloride): behavioral recovery
Gait test: maximum velocity, mean velocity, percentage of time resting or moving fast (6-OHDA mouse model [3]; 29 dpi, L-Dopa OFF period, listed as tapentadol hydrochloride): ameliorated
Dose with exaggerated pharmacological effects ([4]; 52-week dog study, oral dosing): 30 mg/kg
Dose groups with QT prolongation ([4]; dogs, hydrochloride): 80 mg/kg and 120 mg/kg
Hepatic hypertrophy [5]: present in all animal species
Open field behavior (velocity, distance, time resting/moving) (healthy wild type mice [6]): slightly different behavior in three out of the four parameters analyzed
Induction of CYP isoenzymes [7]: no significant induction
Necropsy findings (healthy wild type mice [8]; tapentadol C1 8.3 mg/kg in combination with L-Dopa): Two of the three animals treated with tapentadol C1 concentration had a slight hyperemia in the small intestine
Necropsy findings (healthy wild type mice [8]; tapentadol C3 15 mg/kg in combination with L-Dopa): One of the three animals treated with tapentadol C3 concentration had an intestinal congestion
Absorption after oral administration ([9]; dog, mice, and rats): completely absorbed
Bioavailability ([9]; dogs and rats): low
Placenta-blood barrier crossing ([9]; in vivo): crosses the placenta-blood barrier, but to a lesser extent
LD50 (mouse; intravenous administration, mice): 47 mg/kg
LD50 (mouse; oral administration, mouse): 300 mg/kg
LD50 (mouse; oral, mice): 300 to 350 mg/kg
Induction of abnormal involuntary movements (6-OHDA mouse model [10]): None of the treatments, tapentadol or stavudine of the combination, induced involuntary movements
Rotarod: latency to fall and speed, recovery (6-OHDA mouse model [11]; C1 2.8 mg/kg/day i.p., 8 and 15 days post lesion): best recovery between groups, although not significant
Rotarod: latency to fall and speed, recovery (6-OHDA mouse model [11]; daily i.p., dosages tested (C1 and C2)): behavioral recovery over time
Induction of abnormal involuntary movements (6-OHDA mouse model [12]; L-Dopa treated groups vs tapentadol hydrochloride alone): did not; also recorded: does not induce AIMs
Effect on L-Dopa induced AIMs / dyskinesia (6-OHDA mouse model [12]; concomitant administration with L-Dopa, hydrochloride): not reverted; also recorded: did not revert L-Dopa induced AIMs; also recorded: did not increase dyskinesia
